The text below walks through data of patent US11584744B2 (UNIVERSITY OF WASHINGTON, priority 2017, dated 2023).

Values after ≈ are worked out from the molar mass of the structure shown. Values joined by “and” are separate entries in the source; they are usually repeats but may differ in a detail not shown here. Equal entries are not always repeated. Where two headings read alike, the source gives them in different places.

One test addresses MetRS (C. parvum) (Cryptosporidium parvum, UniProt Q5CVN0). Nature of the test: MetRS (C. parvum) enzyme inhibition. In kind it is biochemical. The following applies: read-out: (C) MetRS (C. parvum) IC50.
In another test the test system is S. pyogenes (ATCC 19615). Nature of the test: MIC susceptibility testing. The test is classed as cell-based. Particulars: Streptococcus pyogenes, ATCC19615, S. pyogenes ATCC 19615; read-out: (H) S. pyogenes (ATCC 19615) MIC. The source says:
Media and culture conditions. Mueller Hinton broth (MHB), cation adjusted Mueller Hinton broth (CA-MHB), and Brain Heart Infusion broth (BHI) were purchased from Becton Dickinson (Franklin Lakes, N.J.). Tryptic soy agar (TSA) plates, TSA with 5% sheep blood plates, and CA-MHB with 3% laked horse blood were purchased from Remel (San Diego, Calif.). MHB was used to assay all Staphylococcus aureus strains. CA-MHB was used for Staphylococcus epidermidis, Enterococcus faecalis, Enterococcus faecium, Escherichia coli, and Pseudomonas aeruginosa. CA-MHB supplemented with 3% laked horse blood was used for Streptococcus pneumoniae and Streptococcus pyogenes. Staphylococcus, Enterococcus, Escherichia, and Pseudomonas strains were cultured at 37° C. with ambient air. Streptococcus strains were cultured in 37° C. with 5% CO2. Separate conditions for radiolabeled precursor uptake assays are described below.
Susceptibility testing: Minimum inhibitory concentration (MIC) determinations were performed in triplicate in 96-well round bottom microtiter plates (Corning, Corning N.Y.) as described by the Clinical and Laboratory Standards Institute (CLSI). Serial two-fold dilutions of compounds were added to plates in 50 μL volumes. An additional 50 μL of media containing bacterial cells (1×10^6 CFUs/mL) was then added to each well. Maximum DMSO concentrations were 0.5%. Plates were incubated at 37° C. for at least 18 h before reading the susceptibility result by optical absorbance (OD600) using a BioTek ELx800. The lowest concentration causing ≥90% growth inhibition compared to the untreated control was recorded as the MIC (and also corresponded to the visual MIC). MICs were measured at least twice and the higher value (if different) was recorded herein.

The test system of another test is C. parvum. Nature of the test: C. parvum growth inhibition. The test is classed as cell-based, Cryptosporidium parvum. The following applies: read-out: (J) C. parvum EC50.
Test [1] concerns E. faecium VRE (ATCC 51559). The test can be described thus: MIC susceptibility testing. The test is classed as cell-based, Enterococcus faecium. Particulars: E. faecium ATCC 51559. The gist of the method:
(§1)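 CLSI broth microdilution in triplicate, 5×10^5 CFU/mL final, ≤0.5% DMSO; MHB for S. aureus, CA-MHB for E. coli and E. faecium, CA-MHB plus 3% laked horse blood for S. pyogenes (5% CO2).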

Another test relates to T. brucei. Nature of the test: T. brucei growth inhibition. The test is classed as cell-based, Trypanosoma brucei. The following applies: read-out: (D) T. brucei EC50.
Test [2] relates to S. aureus MRSA (ATCC 33591). The test can be described thus: MIC susceptibility testing. The test is classed as cell-based, Staphylococcus aureus. The following applies: MRSA ATCC33591; for MIC: Staphylococcus aureus, read-out: (G) MRSA (ATCC33591) MIC. The gist of the method: as §1
For another test, the system named is T. cruzi. Nature of the test: T. cruzi growth inhibition. The following applies: read-out: (E) T. cruzi EC50. In kind it is cell-based, Trypanosoma cruzi.
Test [3] relates to S. aureus MSSA (ATCC 29213). The test can be described thus: MIC susceptibility testing. In kind it is cell-based, Staphylococcus aureus. The following applies: Staphylococcus aureus, S. aureus ATCC 29213, read-out: (F) S. aureus (ATCC 29213) MIC.

What is called IC50 is the point on the concentration scale where inhibition reaches its midpoint. By MIC is commonly meant the lowest concentration that inhibits growth of the organism. The term EC50 denotes the concentration giving half of the maximal effect.

Sequence of MetRS (C. parvum) (Q5CVN0 entry or part of it): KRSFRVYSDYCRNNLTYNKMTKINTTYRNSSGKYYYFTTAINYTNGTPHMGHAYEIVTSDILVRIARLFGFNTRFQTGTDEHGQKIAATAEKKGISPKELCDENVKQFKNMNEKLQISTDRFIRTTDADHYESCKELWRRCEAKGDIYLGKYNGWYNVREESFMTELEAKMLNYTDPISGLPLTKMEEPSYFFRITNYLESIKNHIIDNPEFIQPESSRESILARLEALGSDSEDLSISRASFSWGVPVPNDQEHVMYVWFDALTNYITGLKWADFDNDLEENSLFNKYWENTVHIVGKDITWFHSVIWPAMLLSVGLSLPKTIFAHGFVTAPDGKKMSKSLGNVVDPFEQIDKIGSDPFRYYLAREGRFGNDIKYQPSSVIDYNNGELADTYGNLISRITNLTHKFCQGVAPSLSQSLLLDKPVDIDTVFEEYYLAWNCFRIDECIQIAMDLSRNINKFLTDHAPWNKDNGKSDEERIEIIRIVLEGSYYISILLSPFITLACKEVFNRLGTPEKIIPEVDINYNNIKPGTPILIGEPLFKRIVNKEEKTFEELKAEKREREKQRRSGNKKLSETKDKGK

With `COc1cc(Cl)c(Cc2cn(Cc3nc4ccc(Cl)nc4[nH]3)c([S+](C)[O-])n2)cc1OC` (centres unmarked) [Compound 2241, 1-({5-chloro-1H-imidazo[4,5-b]pyridin-2-yl}methyl)-4-[(2-chloro-4,5-dimethoxyphenyl)methyl]-2-methanesulfinyl-1H-imidazole], the IC50 at MetRS (C. parvum) was less than 40 nM. Besides, the minimum inhibitory concentration (MIC) was 0.847 mg/L (≈ 1.76 µM) in the test with S. pyogenes (ATCC 19615); 0.0277 mg/L (≈ 0.0577 µM) in test [1] (Enterococcus faecium, read-out: (I) E. faecium (ATCC 51559) MIC); 0.104 mg/L (≈ 0.216 µM) in test [2]. In addition, the EC50 in the test on C. parvum (Cryptosporidium parvum) is 1600 nM; in the test with C. parvum, more than 2000 nM; with T. brucei (Trypanosoma brucei), 2.12 nM; in the test on T. brucei it was 1.52 nM and 1.8 nM and 1.71 nM. For the same compound, in test [1], the “(I) E. faecium (ATCC 51559) MIC” value was 0.0206, μg/ml and 0.0160, μg/ml and 0.0189 μg/ml. In addition, the “(G) MRSA (ATCC33591) MIC” value in test [2] was 0.113 mg/L.

With `CCNC(=O)n1c(Cc2ccc(Cl)cc2Cl)cn(Cc2nc3nc(Cl)ccc3[nH]2)c1=O` [Compound 2288, 3-({5-chloro-1H-imidazo[4,5-b]pyridin-2-yl}methyl)-5-[(2,4-dichlorophenyl)methyl]—N-ethyl-2-oxo-2,3-dihydro-1H-imidazole-1-carboxamide], the MIC was more than 2 mg/L in the test with S. pyogenes (ATCC 19615), 1.16 mg/L (≈ 2.42 µM) in test [3] and more than 2 mg/L in test [2]. In addition, the results for the concentration for a half-maximal effect (EC50) in the test with T. cruzi (Trypanosoma cruzi) and in the test with T. brucei (Trypanosoma brucei) were 183 nM and 1.79 nM, respectively.

With `CC(C)NCC(O)Cn1c(Cc2ccc(Cl)cc2Cl)cn(Cc2nc3cc(F)c(F)cc3[nH]2)c1=O` (centres unmarked) [Compound 2293, 4-[(2,4-dichlorophenyl)methyl]-1-[(5,6-difluoro-1H-1,3-benzodiazol-2-yl)methyl]-3-{2-hydroxy-3-[(propan-2-yl)amino]propyl}-2,3-dihydro-1H-imidazol-2-one], the MIC (in the test with S. pyogenes (ATCC 19615); in test [3]) was more than 8 mg/L each time. Further, the half-maximal effective concentration (EC50) in the test on T. brucei (Trypanosoma brucei) is 831 nM.

With `CC(C)NCC(O)Cn1c(Cc2ccc(Cl)cc2Cl)cn(Cc2nc3ccc(F)nc3[nH]2)c1=O` (centres unmarked) [Compound 2294, 4-[(2,4-dichlorophenyl)methyl]-1-({5-fluoro-1H-imidazo[4,5-b]pyridin-2-yl}methyl)-3-{2-hydroxy-3-[(propan-2-yl)amino]propyl}-2,3-dihydro-1H-imidazol-2-one], the MIC (in the test on S. pyogenes (ATCC 19615); in test [3]) was more than 8 mg/L each time. Moreover, the EC50 in the test with T. cruzi (Trypanosoma cruzi) amounted to 3330 nM; with T. brucei (Trypanosoma brucei), 30.4 nM.

Regarding `CCn1c(Cc2c(Cl)cc(Cl)cc2OC)cn(Cc2nc3ccc(Cl)nc3[nH]2)c1=O` [Compound 2295], the values for the MIC (in the test on S. pyogenes (ATCC 19615); in test [3] (ATCC29213|MSSA)) were 1.16 mg/L (≈ 2.49 µM) and 0.124 mg/L (≈ 0.266 µM), respectively. Further, the EC50 was 5.3 nM in the test with T. cruzi (Trypanosoma cruzi), 4.59 nM in the test on T. cruzi, less than 0.91 nM with T. brucei (Trypanosoma brucei) and 0.71 nM with T. brucei.

`CCn1c(C(=O)c2ccc(OC)cc2Cl)cn(Cc2nc3ccc(Cl)nc3[nH]2)c1=O` [Compound 2296, 1-({5-chloro-1H-imidazo[4,5-b]pyridin-2-yl}methyl)-4-(2-chloro-4-methoxybenzoyl)-3-ethyl-2,3-dihydro-1H-imidazol-2-one]: the MIC with S. pyogenes (ATCC 19615) came to 0.455 mg/L (≈ 1.02 µM); in test [3], 0.21 mg/L (≈ 0.471 µM). Also, the EC50 in the test with C. parvum (Cryptosporidium parvum) was 62 nM; in the test with T. cruzi (Trypanosoma cruzi), 5.26 nM; with T. cruzi, 7.44 nM; in the test with T. brucei (Trypanosoma brucei), less than 0.91 nM; in the test on T. brucei, 0.78 nM.

Turning to `CCn1c(C(O)c2ccc(OC)cc2Cl)cn(Cc2nc3ccc(Cl)nc3[nH]2)c1=O` (centres unmarked) [Compound 2297, 1-({5-chloro-1H-imidazo[4,5-b]pyridin-2-yl}methyl)-4-[(2-chloro-4-methoxyphenyl)(hydroxy)methyl]-3-ethyl-2,3-dihydro-1H-imidazol-2-one], the figures for the MIC (in the test on S. pyogenes (ATCC 19615); in test [3]) were more than 8 mg/L and 2.98 mg/L (≈ 6.65 µM), respectively. Besides, the EC50 was 203 nM in the test on C. parvum (Cryptosporidium parvum), 53.8 nM in the test on T. cruzi (Trypanosoma cruzi), 79.7 nM with T. cruzi and 7.12 nM with T. brucei (Trypanosoma brucei).
